Measured values: article PMC3579193, “Elucidation of relaxin-3 binding interactions in the extracellular loops of RXFP3” (Frontiers in Endocrinology, 2013)
Numbering of substitutions follows the chain as printed. Entries after “also recorded” stand apart in the source; their conditions may differ.

Experiments:
[1] = target: T1, HA-RXFP3 D75A (Homo sapiens, UniProt Q9NSD7, D75A); assay: Competition binding with Eu-H3/I5, HA-RXFP3 D75A
T1 construct: expressed in transfected cells; host or cells: HEK-293T
T1 sequence (Q9NSD7 2-469 D75A limits assumed): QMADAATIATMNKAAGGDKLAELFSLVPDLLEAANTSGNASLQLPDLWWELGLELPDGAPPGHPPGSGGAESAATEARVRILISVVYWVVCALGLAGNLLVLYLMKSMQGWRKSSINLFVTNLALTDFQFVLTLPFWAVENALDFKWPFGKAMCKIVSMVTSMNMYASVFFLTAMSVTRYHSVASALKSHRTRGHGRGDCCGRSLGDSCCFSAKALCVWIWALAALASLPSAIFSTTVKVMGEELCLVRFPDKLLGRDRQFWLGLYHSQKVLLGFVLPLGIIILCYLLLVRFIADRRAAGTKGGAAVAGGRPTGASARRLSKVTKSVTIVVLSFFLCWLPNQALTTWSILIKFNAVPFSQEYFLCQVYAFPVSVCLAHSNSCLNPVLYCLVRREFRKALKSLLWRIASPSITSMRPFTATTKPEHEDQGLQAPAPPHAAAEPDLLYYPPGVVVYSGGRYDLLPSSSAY
Description: (§1) PCR reactions and cloning were undertaken as previously described ([Scott et al., 2006], [2012]).
(§2) The same protocol was used to prepare DNA templates of all Glu/Asp to Ala mutants, entailing a single codon change except for D47A/E51A, E55A/D58A, and E141A/D145A which required a double codon change both to Ala. The forward and reverse primers for all mutants are listed in Table 1 and mutagenesis reactions on pcDNA3.1zeo (+)-HA-RXFP3 were performed as previously described ([Scott et al., 2006]; [Yan et al., 2008]). […]
(§3) HEK-293T cells were transfected in 96 well optiplates (Perkin Elmer) with plasmids encoding the constructs of interest and Eu-H3/I5 binding assays conducted as described previously ([Luo et al., 2010]; [Haugaard-Kedstrom et al., 2011]). […] Binding data are expressed as mean ± standard error of mean (SEM) of % specific binding of triplicate measurements pooled from at least three independent experiments. Data were analyzed using Graphpad PRISM (Graphpad Inc.) and a non-linear regression one-site binding model was used to plot curves and calculate pIC50 values. […] The HA epitope was detected using a purified mouse monoclonal anti-HA antibody [HA.11(16B12), Covance] and a Alexafluor488-labeled goat anti mouse IgG (Invitrogen) in cell surface expression assays that were performed in 24 well plates as previously described ([Yan et al., 2008]). […]

[2] = target: T2, HA-RXFP3 245A (Homo sapiens, UniProt Q9NSD7, E245A); assay: Competition binding with Eu-H3/I5, HA-RXFP3 E245A
T2 construct: expressed in transfected cells; host or cells: HEK-293T
T2 sequence (Q9NSD7 2-469 E245A limits assumed): T1 sequence (Q9NSD7 2-469 D75A limits assumed) with A74D, E244A
Description: as §1, §2, §3

[3] = system: RXFP4; settings: ref Liu et al., 2003a; cited from earlier work
Excerpt: Relaxin-3 is a member of the relaxin peptide family. Peptides from this family activate relaxin family peptide (RXFP) receptors, which are Type I or Class A G protein-coupled receptors (GPCRs). […] The rela ... || Based on the hypothesis that coevolution of relaxin-3 and RXFP3 occurred in vertebrates and that residues important for relaxin-3 binding and activation should therefore be conserved we performed multiple sequence alignments of all vertebrate RXFP3 sequences. […] Figure 1A highlights sequence alignments of representative mammalian species (human, chimpanzee, rat, mouse, platypus) and representative lower vertebrate species (Frog and Zebrafish) from this analysis compa ... || Based on the hypothesis that coevolution of relaxin-3 and RXFP3 occurred in vertebrates, and in the knowledge that the key relaxin-3 B-chain residues are conserved across all vertebrate species ([Wilkinson et al., 2005b]), we performed multiple sequence alignments of all vertebrate RXFP3 sequences to identify highly conserved residues in the ELs and NT domain that may be involved in relaxin-3 binding. […] We have focused on glutamic (E) and aspartic acid (D) residues ...

[4] = target: T3, HA-RXFP3 E55A/D58A (Homo sapiens, UniProt Q9NSD7, D58A/E55A); assay: Competition binding with Eu-H3/I5, HA-RXFP3 E55A/D58A
T3 construct: expressed in transfected cells; host or cells: HEK-293T
T3 sequence (Q9NSD7 2-469 E55A/D58A limits assumed): T1 sequence (Q9NSD7 2-469 D75A limits assumed) with E54A, D57A, A74D
Description: as §1, §2, §3

For `CC[C@H](C)[C@@H]1NC(=O)[C@H](Cc2ccccc2)NC(=O)[C@H](CCC(=O)O)NC(=O)[C@H](CCCNC(=N)N)NC(=O)CNC(=O)[C@@H](NC(=O)[C@H](CC(C)C)NC(=O)[C@H](CCCNC(=N)N)NC(=O)[C@@H](NC(=O)CNC(=O)[C@H](Cc2ccc(O)cc2)NC(=O)[C@@H]2CCCN2C(=O)[C@H](C)NC(=O)[C@H](C)NC(=O)[C@@H](N)CCCNC(=N)N)C(C)C)CSSC[C@@H]2NC(=O)[C@@H](NC(=O)[C@H](CO)NC(=O)[C@H](CO)NC(=O)[C@H](CO)NC(=O)[C@H](CC(C)C)NC(=O)CNC(=O)[C@H](C)NC(=O)[C@H](CC(C)C)NC(=O)[C@@H](NC(=O)[C@@H](N)CC(=O)O)C(C)C)CSSC[C@H](NC(=O)CNC(=O)[C@H](Cc3c[nH]c4ccccc34)NC(=O)[C@H](CCCCN)NC2=O)C(=O)N[C@@H](CO)C(=O)N[C@@H](CCCCN)C(=O)N[C@@H](CO)C(=O)N[C@@H](CCC(=O)O)C(=O)N[C@@H]([C@@H](C)CC)C(=O)N[C@@H](CO)C(=O)N[C@@H](CO)C(=O)N[C@@H](CC(C)C)C(=O)N[C@H](C(=O)O)CSSC[C@@H](C(=O)NCC(=O)NCC(=O)N[C@@H](CO)C(=O)N[C@@H](CCCNC(=N)N)C(=O)N[C@@H](Cc2c[nH]c3ccccc23)C(=O)O)NC(=O)[C@H]([C@@H](C)O)NC(=O)[C@H](Cc2ccccc2)NC(=O)[C@H]([C@@H](C)CC)NC(=O)[C@H](C(C)C)NC(=O)[C@H](C)NC(=O)[C@H](CCCNC(=N)N)NC1=O` [H3 relaxin], the IC50 [1] was 20 nM, the “affinity compared with HA-RXFP3” value ([1]; competition binding) was “no significant difference in the affinity” and the IC50 [2] was 44.7 nM. For the same compound, the “affinity compared with HA-RXFP3” value ([2]; competition binding, p > 0.05) was “slightly lower H3 relaxin binding affinity but this was not significantly different from HA-RXFP3; also recorded: no significant difference in H3 relaxin affinity; also recorded: did not show a significant drop in binding”, the “binding to and activation of RXFP4” value [3] was “binds to and activates human RXFP4” and the IC50 [4] was 9.33 nM. The “affinity compared with HA-RXFP3” value ([4]; competition binding, p > 0.05) was “not significantly different from HA-RXFP3”.
